{
  "source": "ChEMBL document CHEMBL5230136",
  "about": "“A review: Biologically active 3,4-heterocycle-fused coumarins” (Eur J Med Chem, 2021)",
  "key": {"Raji": {"test_system": "Raji", "assay": "Antiproliferative activity against human Raji cells assessed as reduction in cell growth incubated for 72 hrs by MTT assay", "assay_type": "functional, cell-based"}, "Escherichia coli [1]": {"test_system": "Escherichia coli", "assay": "Antibacterial activity against Escherichia coli assessed as zone of inhibition at 20 mg/ml", "assay_type": "functional", "conditions": "read-out: IZ"}, "Aspergillus flavus": {"test_system": "Aspergillus flavus", "assay": "Antifungal activity against Aspergillus flavus assessed as zone of inhibition at 20 mg/ml", "assay_type": "functional", "conditions": "read-out: IZ"}, "Bacillus cereus [2]": {"test_system": "Bacillus cereus", "assay": "Antibacterial activity against Bacillus cereus assessed as zone of inhibition at 20 mg/ml", "assay_type": "functional", "conditions": "read-out: IZ"}, "Staphylococcus aureus [3]": {"test_system": "Staphylococcus aureus", "assay": "Antibacterial activity against Staphylococcus aureus assessed as zone of inhibition at 20 mg/ml", "assay_type": "functional", "conditions": "read-out: IZ"}, "Trichophyton rubrum": {"test_system": "Trichophyton rubrum", "assay": "Antifungal activity against Trichophyton rubrum assessed as zone of inhibition at 20 mg/ml", "assay_type": "functional", "conditions": "read-out: IZ"}, "Geotrichum candidum [4]": {"test_system": "Geotrichum candidum", "assay": "Antifungal activity against Geotrichum candidum assessed as zone of inhibition at 20 mg/ml", "assay_type": "functional", "conditions": "read-out: IZ"}, "Pseudomonas aeruginosa": {"test_system": "Pseudomonas aeruginosa", "assay": "Antibacterial activity against Pseudomonas aeruginosa assessed as zone of inhibition at 20 mg/ml", "assay_type": "functional", "conditions": "read-out: IZ"}, "Geotrichum candidum [5]": {"test_system": "Geotrichum candidum", "assay": "Antimicrobial activity against Geotrichum candidum assessed as zone of inhibition at 50 uM", "assay_type": "functional", "conditions": "read-out: IZ"}, "Micrococcus luteus": {"test_system": "Micrococcus luteus", "assay": "Antibacterial activity against Micrococcus luteus assessed as zone of inhibition at 20 mg/ml", "assay_type": "functional", "conditions": "read-out: IZ"}, "Candida albicans [6]": {"test_system": "Candida albicans", "assay": "Antifungal activity against Candida albicans assessed as zone of inhibition at 20 mg/ml", "assay_type": "functional", "conditions": "read-out: IZ"}, "Serratia marcescens": {"test_system": "Serratia marcescens", "assay": "Antibacterial activity against Serratia marcescens assessed as zone of inhibition at 20 mg/ml", "assay_type": "functional", "conditions": "read-out: IZ"}, "Scopulariopsis": {"test_system": "Scopulariopsis", "assay": "Antifungal activity against Scopulariopsis assessed as zone of inhibition at 20 mg/ml", "assay_type": "functional", "conditions": "read-out: IZ"}, "Fusarium oxysporum": {"test_system": "Fusarium oxysporum", "assay": "Antifungal activity against Fusarium oxysporum assessed as zone of inhibition at 20 mg/ml", "assay_type": "functional", "conditions": "read-out: IZ"}, "HeLa": {"test_system": "HeLa", "assay": "Antiproliferative activity against human HeLa cells assessed as reduction in cell proliferation", "assay_type": "functional, cell-based"}, "[7]": {"assay": "Antiproliferative activity against human U87 cells assessed as reduction in cell viability by MTT assay", "assay_type": "functional, cell-based, U-87MG ATCC", "conditions": "U-87 MG"}, "Bacillus cereus [8]": {"test_system": "Bacillus cereus", "assay": "Antibacterial activity against Bacillus cereus assessed as reduction in microbial growth after 18 hrs by MTT based broth dilution method", "assay_type": "functional, organism-based"}, "Mus musculus": {"test_system": "Mus musculus", "assay": "Antiinflammatory activity in Swiss albino mouse model of carrageenan-induced paw edema assessed as reduction in paw edema", "assay_type": "functional", "set-up": "scale not given: the % may be the effect or the level left"}, "RAW264.7": {"test_system": "RAW264.7", "assay": "Anti-inflammatory activity against mouse RAW264.7 cells assessed as inhibition of LPS-induced NO production at 50 ug/ml relative to control", "assay_type": "functional", "set-up": "scale not given: the % may be the effect or the level left", "conditions": "dose 50 µg/ml"}, "MCF7 [9]": {"test_system": "MCF7", "assay": "Cytotoxicity activity against human MCF7 cells assessed as decreased cell viability", "assay_type": "functional, cell-based"}, "Candida albicans [10]": {"test_system": "Candida albicans", "assay": "[…] activity against Candida albicans assessed as zone of inhibition at 20 mg/ml", "assay_type": "functional", "conditions": "read-out: IZ"}, "Staphylococcus simulans": {"test_system": "Staphylococcus simulans", "assay": "Antibacterial activity against Staphylococcus simulans assessed as zone of inhibition at 20 mg/ml", "assay_type": "functional", "conditions": "read-out: IZ"}, "Staphylococcus aureus [11]": {"test_system": "Staphylococcus aureus", "assay": "Antibacterial activity against Staphylococcus aureus by dilution assay", "assay_type": "functional"}, "[12]": {"assay": "Antioxidant activity assessed as DPPH radical scavenging activity", "assay_type": "functional"}, "MCF7 [13]": {"test_system": "MCF7", "assay": "Anticancer activity against human MCF7 cells assessed as inhibition of cell proliferation measured after 48 hrs by MTT assay", "assay_type": "functional, cell-based", "conditions": "MCF7, 48 h"}, "Staphylococcus aureus [14]": {"test_system": "Staphylococcus aureus", "assay": "Antibacterial activity against Staphylococcus aureus ATCC 29213 assessed as reduction in bacterial growth", "assay_type": "functional"}, "Bacillus subtilis": {"test_system": "Bacillus subtilis", "assay": "Antibacterial activity against Bacillus subtilis assessed as reduction in bacterial growth", "assay_type": "functional"}, "Escherichia coli [15]": {"test_system": "Escherichia coli", "assay": "Antibacterial activity against Escherichia coli assessed as bacterial growth inhibition", "assay_type": "functional"}, "[16]": {"test_system": "Staphylococcus epidermidis", "assay": "Antibacterial activity against Staphylococcus epidermidis assessed as reduction in bacterial growth", "assay_type": "functional"}},
  "data": [
    {"smiles": "COc1cccc(C2C3=C(CCCC3=O)Oc3c2c(=O)oc2ccccc32)c1", "note": "(stereo not given)", "values": [
      {"measurement": "IC50", "setting": "Raji", "result": 73, "unit": "µM"}
    ]},
    {"smiles": "CCOC(=O)c1sc2c(c1NC(=O)CNc1ccc(S(N)(=O)=O)cc1)c(=O)oc1ccccc12", "values": [
      {"measurement": "zone of inhibition at 20000 µg/mL", "setting": "Escherichia coli [1]", "result": 9, "unit": "mm"},
      {"measurement": "zone of inhibition at 20000 µg/mL", "setting": "Aspergillus flavus", "result": 0, "unit": "mm"},
      {"measurement": "zone of inhibition at 20000 µg/mL", "setting": "Bacillus cereus [2]", "result": 0, "unit": "mm"},
      {"measurement": "zone of inhibition at 20000 µg/mL", "setting": "Staphylococcus aureus [3]", "result": 9, "unit": "mm"},
      {"measurement": "zone of inhibition at 20000 µg/mL", "setting": "Trichophyton rubrum", "result": 0, "unit": "mm"},
      {"measurement": "zone of inhibition at 20000 µg/mL", "setting": "Geotrichum candidum [4]", "result": 10, "unit": "mm"},
      {"measurement": "zone of inhibition at 20000 µg/mL", "setting": "Pseudomonas aeruginosa", "result": 0, "unit": "mm"},
      {"measurement": "zone of inhibition at 50 µM", "setting": "Geotrichum candidum [5]", "result": 10, "unit": "mm"},
      {"measurement": "zone of inhibition at 20000 µg/mL", "setting": "Micrococcus luteus", "result": 0, "unit": "mm"},
      {"measurement": "zone of inhibition at 20000 µg/mL", "setting": "Candida albicans [6]", "result": 0, "unit": "mm"},
      {"measurement": "zone of inhibition at 20000 µg/mL", "setting": "Serratia marcescens", "result": 0, "unit": "mm"},
      {"measurement": "zone of inhibition at 20000 µg/mL", "setting": "Scopulariopsis", "result": 0, "unit": "mm"},
      {"measurement": "zone of inhibition at 20000 µg/mL", "setting": "Fusarium oxysporum", "result": 0, "unit": "mm"}
    ]},
    {"smiles": "O=C(NO)c1cc2c(=O)oc3ccccc3c2s1", "values": [
      {"measurement": "IC50", "setting": "HeLa", "result": 8.84, "unit": "µM"}
    ]},
    {"smiles": "N#CC1=C(N)Oc2c(c(=O)oc3ccccc23)C12C(=O)N(CCCCCCCCCCBr)c1ccccc12", "note": "(stereo not given)", "values": [
      {"measurement": "IC50", "setting": "[7]", "result": 39, "unit": "µM"},
      {"measurement": "IC50", "setting": "Bacillus cereus [8]", "result": 39, "unit": "µM"}
    ]},
    {"smiles": "CCOc1nc(-c2ccco2)cc2c1c(=O)oc1ccccc12", "values": [
      {"measurement": "Activity", "setting": "Mus musculus", "result": 89, "unit": "%"},
      {"measurement": "Activity", "setting": "RAW264.7", "result": 62, "unit": "%"}
    ]},
    {"smiles": "Cc1ccc2nc3c(c(-c4ccccc4)c2c1)c(=O)oc1ccccc13", "values": [
      {"measurement": "IC50", "setting": "MCF7 [9]", "result": 0.05, "unit": "µM"}
    ]},
    {"smiles": "Cc1cccc2c1oc(=O)c1cn[nH]c12", "values": [
      {"measurement": "zone of inhibition at 20000 µg/mL", "setting": "Candida albicans [10]", "result": 14, "unit": "mm"},
      {"measurement": "zone of inhibition at 20000 µg/mL", "setting": "Staphylococcus simulans", "result": 14, "unit": "mm"},
      {"measurement": "zone of inhibition at 20000 µg/mL", "setting": "Staphylococcus aureus [3]", "result": 14, "unit": "mm"},
      {"measurement": "MIC", "setting": "Staphylococcus aureus [11]", "result": 100, "unit": "µM"}
    ]},
    {"smiles": "O=c1oc2ccccc2c2[se]c(CN3CCOCC3)c(Nc3cccnc3)c12", "values": [
      {"measurement": "IC50", "setting": "[12]", "result": 4, "unit": "µM"},
      {"measurement": "IC50", "setting": "MCF7 [13]", "result": 41, "unit": "µM"}
    ]},
    {"smiles": "CC1=Nc2[nH]n(-c3ccccc3)c(=O)c2C2c3cc(Cl)cc(Cl)c3OC(=O)C12", "note": "(stereo not given)", "values": [
      {"measurement": "MIC", "setting": "Staphylococcus aureus [14]", "result": 25, "unit": "µM"},
      {"measurement": "MIC", "setting": "Bacillus subtilis", "result": 6.3, "unit": "µM"},
      {"measurement": "MIC", "setting": "Escherichia coli [15]", "result": 6.3, "unit": "µM"},
      {"measurement": "MIC", "setting": "[16]", "result": 6.3, "unit": "µM"}
    ]}
  ]
}
